Measurements as given in patent US8147818B2, “Hepatitis C virus inhibitors” (Bristol-Myers Squibb Company, priority 2008, dated 2012).

What follows are molecules tested on HCV 1b-377-neo replicon cells (assay: HCV Replicon assay, HCV 1b-377-neo replicon cells). Conditions: Hepatitis C virus, read-out: EC50 against HCV 1b (Activity or Range).
Format: cell-based, HCV 1b genotype
Experimental: An HCV Replicon assay was utilized in the present disclosure, and was prepared, conducted and validated as described in commonly owned PCT/US2006/022197 and in O'Boyle et. al. Antimicrob Agents Chemother. 2005 April; 49(4):1346-53.
HCV 1b-377-neo replicon cells were used to test the currently described compound series as well as cells resistant to compound A containing a Y2065H mutation in NS5A (described in application PCT/US2006/022197). The compounds tested were determined to have more than 10-fold less inhibitory activity on cells containing the mutation than wild-type cells indicating a related mechanism of action between the two compound series. Thus, the compounds of the present disclosure can be effective to inhibit the function of the HCV NS5A protein and are understood to be as effective in combinations as previously described in application PCT/US2006/022197 and commonly owned WO/O4014852. Further, the compounds of the present disclosure can be effective against the HCV 1b genotype. It should also be understood that the compounds of the present disclosure can inhibit multiple genotypes of HCV. […] In one embodiment compounds of the present disclosure are active against the 1a, 1b, 2a, 2b, 3a, 4a, and 5a genotypes.
`COC(=O)N[C@H](C(=O)N1CCC[C@H]1c1ncc(-c2ccc(-c3ccc4c(c3)CCCc3[nH]c([C@@H]5CCCN5C(=O)[C@@H](NC(=O)OC)C(C)C)nc3-4)cc2)[nH]1)C(C)C` [Example 22] showed an EC50 of 5 pM.
Work on `CCN(CC)[C@@H](C(=O)N1CCC[C@H]1c1nc2c([nH]1)CCCc1cc(-c3ccc(-c4[nH]c([C@@H]5CCCN5C(=O)[C@@H](c5ccccc5)N(CC)CC)nc4CC(F)(F)F)cc3)ccc1-2)c1ccccc1` [Example 22a.3] yielded an EC50 of 10 pM.
`COC(=O)N[C@H](C(=O)N(C)[C@@H](C)c1ncc(-c2ccc(-c3ccc4c(c3)CCCc3[nH]c([C@@H]5CCCN5C(=O)[C@@H](NC(=O)OC)C(C)C)nc3-4)cc2)[nH]1)C(C)C` [Example 22e] gave an EC50 of 3 pM.
In the case of `COC(=O)N[C@@H](C)C(=O)N1CCC[C@H]1c1ncc(-c2ccc(-c3ccc4c(c3)CCCc3[nH]c([C@@H]5CCCN5C(=O)[C@H](C)NC(=O)OC)nc3-4)cc2F)[nH]1` [Example 22g.2], the EC50 is reported as 20 pM.
`COC(=O)N[C@H](C(=O)N1CCC[C@H]1c1ncc(-c2ccc(-c3ccc4c(c3)CCCc3[nH]c([C@@H]5CCCN5C(=O)[C@@H](NC(=O)OC)C(C)C)nc3-4)cc2F)[nH]1)C(C)C` [Example 22g] showed an EC50 of 1 pM.
`COC(=O)N[C@H](C(=O)N1CCC[C@H]1c1ncc(-c2cccc(-c3ccc4c(c3)-c3nc([C@@H]5CCCN5C(=O)[C@@H](NC(=O)OC)C(C)C)[nH]c3CCC4)c2)[nH]1)C(C)C` [Example 22j] gave an EC50 of 14000 pM.
Work on `COC(=O)N[C@H](C(=O)N1CCC[C@H]1c1ncc(-c2ccc(-c3ccc4c(c3)Cc3nc([C@@H]5CCCN5C(=O)[C@@H](NC(=O)OC)C(C)C)[nH]c3CC4)cc2)[nH]1)C(C)C` [Example 22p] yielded an EC50 of 160 pM.

Same assay, conditions: Hepatitis C virus, read-out: EC50 against HCV 1b (Activity or Range), range class
`CCN(CC)[C@@H](C(=O)N1CCC[C@H]1c1ncc(-c2ccc(-c3ccc4c(c3)CCCc3[nH]c([C@@H]5CCCN5C(=O)[C@@H](c5ccccc5)N(CC)CC)nc3-4)cc2)[nH]1)c1ccccc1` [Example 22.1] gave an EC50 of 1 to 100 pM.
Work on `COC(=O)N[C@@H](C)C(=O)N1CCC[C@H]1c1ncc(-c2ccc(-c3ccc4c(c3)CCCc3[nH]c([C@@H]5CCCN5C(=O)[C@H](C)NC(=O)OC)nc3-4)cc2)[nH]1` [Example 22.2] yielded an EC50 of 1 to 100 pM.
`COC(=O)N[C@@H](C(=O)N1CCC[C@H]1c1ncc(-c2ccc(-c3ccc4c(c3)CCCc3[nH]c([C@@H]5CCCN5C(=O)[C@H](NC(=O)OC)c5ccccc5)nc3-4)cc2)[nH]1)c1ccccc1` [Example 22.3] gave an EC50 of 1 to 100 pM.
Molecule `COC(=O)N[C@@H](C(=O)N1CCC[C@H]1c1ncc(-c2ccc(-c3ccc4c(c3)OCCc3[nH]c([C@@H]5CCCN5C(=O)[C@H](NC(=O)OC)c5ccccc5)nc3-4)cc2)[nH]1)c1ccccc1` [Example 22a.1] has an EC50 of 1 to 100 pM.
`COC(=O)N[C@H](C(=O)N1CCC[C@H]1c1nc2c([nH]1)CCCc1cc(-c3ccc(-c4[nH]c([C@@H]5CCCN5C(=O)[C@@H](NC(=O)OC)C(C)C)nc4CC(F)(F)F)cc3)ccc1-2)C(C)C` [Example 22a.2] gave an EC50 of 1 to 100 pM.
`COC(=O)N[C@H](C(=O)N1CCC[C@H]1c1nc2c([nH]1)CCCc1cc(-c3ccc(-c4[nH]c([C@@H]5CCCN5C(=O)[C@@H](NC(=O)OC)C(C)C)nc4CCC(F)(F)F)cc3)ccc1-2)C(C)C` [Example 22a.4] was tested, and the EC50 was 1 to 100 pM.
Work on `CCN(CC)[C@@H](C(=O)N(C)[C@@H](C)c1nc2c([nH]1)CCCc1cc(-c3ccc(-c4cnc([C@@H]5CCCN5C(=O)[C@@H](c5ccccc5)N(CC)CC)[nH]4)cc3)ccc1-2)c1ccccc1` [Example 22b.1] yielded an EC50 of 1 to 100 pM.
`COC(=O)N[C@H](C(=O)N(C)[C@@H](C)c1nc2c([nH]1)CCOc1cc(-c3ccc(-c4cnc([C@@H]5CCCN5C(=O)[C@@H](NC(=O)OC)C(C)C)[nH]4)cc3)ccc1-2)C(C)C` [Example 22b.2] showed an EC50 of 1 to 100 pM.
Molecule `COC(=O)N[C@@H](C(=O)N(C)[C@@H](C)c1nc2c([nH]1)CCOc1cc(-c3ccc(-c4cnc([C@@H]5CCCN5C(=O)[C@H](NC(=O)OC)c5ccccc5)[nH]4)cc3)ccc1-2)c1ccccc1` [Example 22b.3] has an EC50 of 1 to 100 pM.
`CCN(CC)[C@@H](C(=O)N[C@@H](C)c1nc2c([nH]1)CCCc1cc(-c3ccc(-c4cnc([C@@H]5CCCN5C(=O)[C@@H](c5ccccc5)N(CC)CC)[nH]4)cc3)ccc1-2)c1ccccc1` [Example 22c.1] showed an EC50 of 1 to 100 pM.
Work on `CCN(CC)[C@@H](C(=O)N1[C@@H]2C[C@@H]2C[C@H]1c1ncc(-c2ccc(-c3ccc4c(c3)CCCc3[nH]c([C@@H]5C[C@H]6C[C@H]6N5C(=O)[C@@H](c5ccccc5)N(CC)CC)nc3-4)cc2)[nH]1)c1ccccc1` [Example 22c.3] yielded an EC50 of 1 to 100 pM.
With `COC(=O)N[C@H](C(=O)N[C@@H](C)c1nc2c([nH]1)CCCc1cc(-c3ccc(-c4cnc([C@@H]5CCCN5C(=O)[C@@H](NC(=O)OC)C(C)C)[nH]4)cc3)ccc1-2)C(C)C` [Example 22c] the EC50 was 1 to 100 pM.
`COC(=O)N[C@H](C(=O)N[C@@H](C)c1ncc(-c2ccc(-c3ccc4c(c3)CCCc3[nH]c([C@H](C)NC(=O)[C@@H](NC(=O)OC)C(C)C)nc3-4)cc2)[nH]1)C(C)C` [Example 22d] showed an EC50 of 1 to 100 pM.
Molecule `COC(=O)N[C@H](C(=O)N[C@@H](C)c1ncc(-c2ccc(-c3ccc4c(c3)CCCc3[nH]c([C@@H]5CCCN5C(=O)[C@@H](NC(=O)OC)C(C)C)nc3-4)cc2)[nH]1)C(C)C` [Example 22f] has an EC50 of 1 to 100 pM.
`CCN(CC)[C@@H](C(=O)N1CCC[C@H]1c1ncc(-c2ccc(-c3ccc4c(c3)CCCc3[nH]c([C@@H]5CCCN5C(=O)[C@@H](c5ccccc5)N(CC)CC)nc3-4)cc2F)[nH]1)c1ccccc1` [Example 22g.1] was tested, and the EC50 was 1 to 100 pM.
`COC(=O)N[C@H](C(=O)N1CCC[C@H]1c1ncc(-c2ccc(-c3ccc4c(c3)CCCc3[nH]c([C@@H]5CCCN5C(=O)[C@@H](NC(=O)OC)[C@@H](C)OC)nc3-4)cc2F)[nH]1)[C@H](C)OC` [Example 22g.3] was tested, and the EC50 was 1 to 100 pM.
With `CCN(CC)[C@@H](C(=O)N1CC(F)(F)C[C@H]1c1ncc(-c2ccc(-c3ccc4c(c3)CCCc3[nH]c([C@@H]5CCCN5C(=O)[C@@H](c5ccccc5)N(CC)CC)nc3-4)cc2)[nH]1)c1ccccc1` [Example 22h.1] the EC50 was 1 to 100 pM.
With `COC(=O)N[C@H](C(=O)N1CC(F)(F)C[C@H]1c1ncc(-c2ccc(-c3ccc4c(c3)CCCc3[nH]c([C@@H]5CCCN5C(=O)[C@@H](NC(=O)OC)C(C)C)nc3-4)cc2)[nH]1)C(C)C` [Example 22h] the EC50 was 1 to 100 pM.
Work on `CCN(CC)[C@@H](C(=O)N1CCC[C@H]1c1ncc(-c2cccc(-c3ccc4c(c3)-c3nc([C@@H]5CCCN5C(=O)[C@@H](c5ccccc5)N(CC)CC)[nH]c3CCC4)c2)[nH]1)c1ccccc1` [Example 22j.1] yielded an EC50 of 1000 to 99000 pM.
With `CCN(CC)[C@@H](C(=O)N1CCC[C@H]1c1nc2c([nH]1)CCCc1cc(-c3ccc4c(c3)CCCc3[nH]c([C@@H]5CCCN5C(=O)[C@@H](c5ccccc5)N(CC)CC)nc3-4)ccc1-2)c1ccccc1` [Example 22k.1] the EC50 was 1 to 100 pM.
Work on `COC(=O)N[C@H](C(=O)N1CCC[C@H]1c1nc2c([nH]1)CCCc1cc(-c3ccc4c(c3)CCCc3[nH]c([C@@H]5CCCN5C(=O)[C@@H](NC(=O)OC)C(C)C)nc3-4)ccc1-2)C(C)C` [Example 22k] yielded an EC50 of 1 to 100 pM.
In the case of `CCN(CC)[C@@H](C(=O)N1CCC[C@H]1c1ncc(-c2ccc(-c3ccc4c(c3)CCCc3c-4nc([C@@H]4CCCN4C(=O)[C@@H](c4ccccc4)N(CC)CC)n3O)cc2)[nH]1)c1ccccc1` [Example 22n.1], the EC50 is reported as 1 to 100 pM.
In the case of `COC(=O)N[C@H](C(=O)N1CCC[C@H]1c1ncc(-c2ccc(-c3ccc4c(c3)CCCc3c-4nc([C@@H]4CCCN4C(=O)[C@@H](NC(=O)OC)C(C)C)n3O)cc2)[nH]1)C(C)C` [Example 22n], the EC50 is reported as 1 to 100 pM.
`COC(=O)N[C@H](C(=O)N1CCC[C@H]1c1ncc(-c2ccc(-c3ccc4c(c3)CCc3[nH]c([C@@H]5CCCN5C(=O)[C@@H](NC(=O)OC)C(C)C)nc3C4)cc2)[nH]1)C(C)C` [Example 22o] gave an EC50 of 101 to 999 pM.
`CCN(CC)[C@@H](C(=O)N1CCC[C@H]1c1ncc(-c2ccc(-c3ccc4c(c3)CCCCc3c-4nc([C@@H]4CCCN4C(=O)[C@@H](c4ccccc4)N(CC)CC)n3O)cc2)[nH]1)c1ccccc1` [Example 22q.1] was tested, and the EC50 was 1 to 100 pM.
`COC(=O)N[C@H](C(=O)N1CCC[C@H]1c1ncc(-c2ccc(-c3ccc4c(c3)CCCCc3c-4nc([C@@H]4CCCN4C(=O)[C@@H](NC(=O)OC)C(C)C)n3O)cc2)[nH]1)C(C)C` [Example 22q] showed an EC50 of 1 to 100 pM.
Work on `COC(=O)N[C@H](C(=O)N1CCC[C@H]1c1nc2c([nH]1)CCc1cc(-c3ccc(-c4[nH]c([C@@H]5CCCN5C(=O)[C@@H](NC(=O)OC)C(C)C)nc4CCC(F)(F)F)cc3)ccc1-2)C(C)C` [Example 22r.1] yielded an EC50 of 1 to 100 pM.
For `COC(=O)N[C@H](C(=O)N1[C@@H]2C[C@@H]2C[C@H]1c1ncc(-c2ccc(-c3ccc4c(c3)CCc3[nH]c([C@@H]5C[C@H]6C[C@H]6N5C(=O)[C@@H](NC(=O)OC)C(C)C)nc3-4)cc2)[nH]1)C(C)C` [Example 22r.2], the EC50 was 1 to 100 pM.
Work on `CCN(CC)[C@@H](C(=O)N1[C@@H]2C[C@@H]2C[C@H]1c1ncc(-c2ccc(-c3ccc4c(c3)CCc3[nH]c([C@@H]5C[C@H]6C[C@H]6N5C(=O)[C@@H](c5ccccc5)N(CC)CC)nc3-4)cc2)[nH]1)c1ccccc1` [Example 22r.2a] yielded an EC50 of 1 to 100 pM.
Work on `COC(=O)N[C@@H](C(=O)N1[C@@H]2C[C@@H]2C[C@H]1c1ncc(-c2ccc(-c3ccc4c(c3)CCc3[nH]c([C@@H]5C[C@H]6C[C@H]6N5C(=O)[C@H](NC(=O)OC)c5ccccc5)nc3-4)cc2)[nH]1)c1ccccc1` [Example 22r.2b] yielded an EC50 of 1 to 100 pM.
